Data as given in ChEMBL document CHEMBL1201862, “PubChem BioAssay data set” (2004).
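Protocol summary: plate cells (96-well), add compound at 5 concentrations, incubate 48 h, interpolate endpoints linearly. GI50 is the concentration that inhibits growth by half.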 Activity calls are given as the source filed them. No stated cut-off is given here; in the data, active = GI50 up to about 1.1 µM and inactive = higher.

What was measured:
Assay in all cases: growth of human tumour cells (NCI), 48 h
A498 = system: A498
A549 = system: A549
ACHN = system: ACHN
CAKI-1 = system: CAKI-1
CCRF-CEM = system: CCRF-CEM
COLO 205 = system: COLO 205
DLD-1 = system: DLD-1
DMS-114 = system: DMS-114
DMS-273 = system: DMS-273
EKVX = system: EKVX
HCC 2998 = system: HCC 2998
HCT-116 = system: HCT-116
HCT-15 = system: HCT-15
HL-60 = system: HL-60
HOP-18 = system: HOP-18
HOP-62 = system: HOP-62
HOP-92 = system: HOP-92
HT-29 = system: HT-29
IGROV-1 = system: IGROV-1
K562 = system: K562
KM-20L2 = system: KM-20L2
KM12 = system: KM12
LOX IMVI = system: LOX IMVI
LXFL 529 = system: LXFL 529
M14 = system: M14
M19-MEL = system: M19-MEL
MOLT-4 = system: MOLT-4
Malme-3M = system: Malme-3M
NCI-H226 = system: NCI-H226
NCI-H23 = system: NCI-H23
NCI-H460 = system: NCI-H460
NCI-H522 = system: NCI-H522
OVCAR-3 = system: OVCAR-3
OVCAR-4 = system: OVCAR-4
OVCAR-5 = system: OVCAR-5
OVCAR-8 = system: OVCAR-8
RPMI-8226 = system: RPMI-8226
RXF 393 = system: RXF 393
SF-268 = system: SF-268
SF-295 = system: SF-295
SF-539 = system: SF-539
SK-MEL-28 = system: SK-MEL-28
SK-MEL-2 = system: SK-MEL-2
SK-MEL-5 = system: SK-MEL-5
SK-OV-3 = system: SK-OV-3
SN12C = system: SN12C
SNB-19 = system: SNB-19
SNB-75 = system: SNB-75
SNB-78 = system: SNB-78
SR = system: SR
SW-620 = system: SW-620
TK-10 = system: TK-10
U-251 = system: U-251
UACC-257 = system: UACC-257
UACC-62 = system: UACC-62
UO-31 = system: UO-31
XF498 = system: XF498
786-0 = system: 786-0
RXF 631 = system: RXF 631

## C=C1C(=O)OC2/C=C(\C(=O)O)CC/C=C(\C)CC(OC(=O)/C=C(\C)CC)C12 (stereo unspecified)
A498
  GI50: 17.9 µM (inactive)
A549
  GI50: 16 µM (inactive)
ACHN
  GI50: 17 µM (inactive)
CAKI-1
  GI50: 19.3 µM (inactive)
CCRF-CEM
  GI50: > 100 µM (inactive)
COLO 205
  GI50: 17 µM (inactive)
DLD-1
  GI50: 16.7 µM (inactive)
DMS-114
  GI50: 15.4 µM (inactive)
DMS-273
  GI50: 19 µM (inactive)
EKVX
  GI50: 24.7 µM (inactive)
HCC 2998
  GI50: 18.6 µM (inactive)
HCT-116
  GI50: 12.9 µM (inactive)
HCT-15
  GI50: 14.6 µM
HL-60
  GI50: 72.6 µM (inactive)
HOP-18
  GI50: 21.7 µM (inactive)
HOP-62
  GI50: 20.1 µM (inactive)
HOP-92
  GI50: 20.9 µM (inactive)
HT-29
  GI50: 15.7 µM (inactive)
IGROV-1
  GI50: 19.4 µM (inactive)
K562
  GI50: > 100 µM (inactive)
KM-20L2
  GI50: 19.6 µM (inactive)
KM12
  GI50: 14.4 µM (inactive)
LOX IMVI
  GI50: 15.3 µM (inactive)
LXFL 529
  GI50: 16.9 µM (inactive)
M14
  GI50: 16.7 µM (inactive)
M19-MEL
  GI50: 15.6 µM (inactive)
MOLT-4
  GI50: > 100 µM (inactive)
Malme-3M
  GI50: 18.2 µM (inactive)
NCI-H226
  GI50: 17.9 µM (inactive)
NCI-H23
  GI50: 16.4 µM (inactive)
NCI-H460
  GI50: 16.1 µM (inactive)
NCI-H522
  GI50: 17.8 µM (inactive)
OVCAR-3
  GI50: 16.3 µM (inactive)
OVCAR-4
  GI50: 16.9 µM (inactive)
OVCAR-5
  GI50: 13.5 µM (inactive)
OVCAR-8
  GI50: 17.2 µM (inactive)
RPMI-8226
  GI50: 3.45 µM (inactive)
RXF 393
  GI50: 14 µM (inactive)
SF-268
  GI50: 14.9 µM (inactive)
SF-295
  GI50: 17.3 µM (inactive)
SF-539
  GI50: 15.7 µM (inactive)
SK-MEL-28
  GI50: 18.8 µM (inactive)
SK-MEL-2
  GI50: 14.4 µM (inactive)
SK-MEL-5
  GI50: 18.8 µM (inactive)
SK-OV-3
  GI50: 20.3 µM (inactive)
SN12C
  GI50: 17 µM (inactive)
SNB-19
  GI50: 18.9 µM (inactive)
SNB-75
  GI50: 19.5 µM (inactive)
SNB-78
  GI50: 23 µM (inactive)
SR
  GI50: > 100 µM (inactive)
SW-620
  GI50: 16.6 µM (inactive)
TK-10
  GI50: 34.6 µM (inactive)
U-251
  GI50: 17 µM (inactive)
UACC-257
  GI50: 18.2 µM (inactive)
UACC-62
  GI50: 14.3 µM (inactive)
UO-31
  GI50: 19.9 µM (inactive)
XF498
  GI50: 18.3 µM (inactive)

## N#CCCN(CCC#N)c1ccc(/C=C2\N=C(COc3ccc(Cl)cc3Cl)OC2=O)cc1
786-0
  GI50: > 100 µM (inactive)
A498
  GI50: > 100 µM (inactive)
A549
  GI50: > 100 µM (inactive)
CAKI-1
  GI50: > 100 µM (inactive)
CCRF-CEM
  GI50: > 100 µM (inactive)
COLO 205
  GI50: > 100 µM (inactive)
DLD-1
  GI50: > 100 µM (inactive)
DMS-114
  GI50: > 100 µM (inactive)
DMS-273
  GI50: > 100 µM (inactive)
EKVX
  GI50: > 100 µM (inactive)
HCC 2998
  GI50: > 100 µM (inactive)
HCT-116
  GI50: > 100 µM (inactive)
HCT-15
  GI50: > 100 µM
HL-60
  GI50: > 100 µM (inactive)
HOP-62
  GI50: > 100 µM (inactive)
HT-29
  GI50: > 100 µM (inactive)
IGROV-1
  GI50: > 100 µM (inactive)
K562
  GI50: > 100 µM (inactive)
KM-20L2
  GI50: > 100 µM (inactive)
KM12
  GI50: > 100 µM (inactive)
LOX IMVI
  GI50: > 100 µM (inactive)
LXFL 529
  GI50: > 100 µM (inactive)
M14
  GI50: > 100 µM (inactive)
M19-MEL
  GI50: > 100 µM (inactive)
MOLT-4
  GI50: > 100 µM (inactive)
Malme-3M
  GI50: > 100 µM (inactive)
NCI-H23
  GI50: > 100 µM (inactive)
NCI-H460
  GI50: > 100 µM (inactive)
NCI-H522
  GI50: 29.9 µM (inactive)
OVCAR-3
  GI50: > 100 µM (inactive)
OVCAR-4
  GI50: > 100 µM (inactive)
OVCAR-5
  GI50: > 100 µM (inactive)
OVCAR-8
  GI50: > 100 µM (inactive)
RPMI-8226
  GI50: > 100 µM (inactive)
RXF 631
  GI50: > 100 µM (inactive)
SF-268
  GI50: > 100 µM (inactive)
SF-295
  GI50: > 100 µM (inactive)
SF-539
  GI50: > 100 µM (inactive)
SK-MEL-28
  GI50: > 100 µM (inactive)
SK-MEL-2
  GI50: > 100 µM (inactive)
SK-MEL-5
  GI50: > 100 µM (inactive)
SK-OV-3
  GI50: > 100 µM (inactive)
SN12C
  GI50: > 100 µM (inactive)
SNB-19
  GI50: > 100 µM (inactive)
SNB-75
  GI50: 71.8 µM (inactive)
SNB-78
  GI50: > 100 µM (inactive)
SW-620
  GI50: > 100 µM (inactive)
TK-10
  GI50: > 100 µM (inactive)
U-251
  GI50: > 100 µM (inactive)
UACC-257
  GI50: > 100 µM (inactive)
UACC-62
  GI50: > 100 µM (inactive)
UO-31
  GI50: > 100 µM (inactive)
XF498
  GI50: > 100 µM (inactive)

## c1ccc(-c2nc3sccn3n2)cc1
A498
  GI50: > 100 µM (inactive)
A549
  GI50: > 100 µM (inactive)
ACHN
  GI50: > 100 µM (inactive)
CCRF-CEM
  GI50: > 100 µM (inactive)
DMS-114
  GI50: > 100 µM (inactive)
DMS-273
  GI50: > 100 µM (inactive)
EKVX
  GI50: > 100 µM (inactive)
HCT-116
  GI50: > 100 µM (inactive)
HL-60
  GI50: > 100 µM (inactive)
HOP-62
  GI50: > 100 µM (inactive)
HOP-92
  GI50: 74.3 µM (inactive)
HT-29
  GI50: > 100 µM (inactive)
IGROV-1
  GI50: > 100 µM (inactive)
K562
  GI50: > 100 µM (inactive)
KM12
  GI50: > 100 µM (inactive)
M14
  GI50: > 100 µM (inactive)
M19-MEL
  GI50: > 100 µM (inactive)
MOLT-4
  GI50: > 100 µM (inactive)
NCI-H23
  GI50: > 100 µM (inactive)
NCI-H460
  GI50: > 100 µM (inactive)
NCI-H522
  GI50: > 100 µM (inactive)
OVCAR-5
  GI50: > 100 µM (inactive)
OVCAR-8
  GI50: > 100 µM (inactive)
RXF 393
  GI50: > 100 µM (inactive)
RXF 631
  GI50: > 100 µM (inactive)
SF-268
  GI50: > 100 µM (inactive)
SF-295
  GI50: > 100 µM (inactive)
SK-MEL-28
  GI50: > 100 µM (inactive)
SK-OV-3
  GI50: > 100 µM (inactive)
SNB-19
  GI50: > 100 µM (inactive)
SR
  GI50: > 100 µM (inactive)
TK-10
  GI50: > 100 µM (inactive)
U-251
  GI50: > 100 µM (inactive)
UACC-257
  GI50: > 100 µM (inactive)
UACC-62
  GI50: > 100 µM (inactive)
UO-31
  GI50: > 100 µM (inactive)
